Here are results for twelve compounds from patent publication US6028197A, “Dibenzo[a,g]quinolizinium derivatives and the salts thereof” (Hanwha Corporation, priority 1998, dated 2000).

Broadly, the IC50 is the concentration that inhibits the measured activity by half.

The target in this test is T1, sterol 14-reductase (Rattus norvegicus, UniProt A0ACM8Q6X4).
T1 construct: microsome which was used as an enzyme source of sterol 14-reductase; from tissue; host or cells: liver microsomes of male Sprague-Dawley rats fed lovastatin and cholestyramine
T1 sequence (A0ACM8Q6X4 1-418): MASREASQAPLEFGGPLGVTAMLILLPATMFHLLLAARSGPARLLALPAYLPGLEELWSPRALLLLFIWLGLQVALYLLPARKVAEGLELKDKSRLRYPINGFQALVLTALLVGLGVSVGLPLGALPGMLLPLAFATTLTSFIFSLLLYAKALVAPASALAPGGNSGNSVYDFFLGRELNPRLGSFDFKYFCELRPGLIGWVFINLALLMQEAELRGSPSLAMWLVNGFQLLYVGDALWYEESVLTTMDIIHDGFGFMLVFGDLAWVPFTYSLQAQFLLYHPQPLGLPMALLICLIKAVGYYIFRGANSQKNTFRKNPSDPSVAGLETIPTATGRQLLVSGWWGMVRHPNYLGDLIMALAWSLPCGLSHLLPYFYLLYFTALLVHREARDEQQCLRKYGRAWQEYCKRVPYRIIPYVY
Description: Inhibition of sterol 14-reductase in rat liver microsomes. It counts as biochemical. The conditions noted are these: read-out: Enzyme Activity (relative in vitro activity for sterol 14-reductase, IC50 class). For orientation: Liver microsomes are vesicles of endoplasmic reticulum, rich in cytochrome P450 enzymes.
Description: 20 Male Sprague-Dawley rats weighing from 150 to 250 g have been fed for 7 days with a diet containing 0.1% (w/w) Lovastatin and 5% (w/w) Cholestyramine. The animals were fasted for 12 hours before excising liver tissues and then sacrificed by decapitation at midnight. An aqueous solution containing 0.25M of sucrose was injected into the hepatic portal vein to remove all the blood within the liver, and then, the liver was excised. The liver was homogenated with two volumes of buffer solution A (0.1M potassium phosphate, 1 mM reduced glutathione, 0.5 mM EDTA, 20% (v/v) glycerol, pH 7.4) by repeating pestles over 10 times and then, centrifuged with 900×g for 5 minutes to give a supernatant. The supernatant was centrifuged with 12,000×g for 20 minutes. The supernatant obtained was ultracentrifuged with 105,000×g for 90 minutes to give a microsome which was used as an enzyme source of sterol 14-reductase. Assay for sterol 14-reductase was carried out as follows:
60 mmol of 4,4-dimethyl-5α-cholesta-7,14-dien-3β-ol and 5,6-dihydrodibenzo-[a,g]quinolizinium salts (compound no. 2) dissolved in DMSO were added to an assay mixture (total volume 1.0 ml) containing 2 mg of the microsomal protein, 2 mM of NADPH and 25 mg of glucose plus 20 units of glucose oxidase with preincubations under nitrogen at 37° C. for 4 min. unless otherwise specified to establish anaerobic condition. Buffer A (0.1M potassium phosphate buffer, pH 7.4, including 1 mM reduced glutathione, 0.5 mM EDTA, and 20% (v/v) glycerol) used for incubation had been equilibrated with nitrogen, and nitrogen was exchanged for air in all sealed reaction flasks prior to the start of incubations. Incubation of the complete mixture was carried out anaerobically in sealed flasks for 10 min at 37° C. unless otherwise indicated. Incubations were terminated by the addition of 1 ml of ethanolic KOH followed by heating under reflux for 10 min. Sterols were extracted four times with 4 ml of petroleum ether, and the solvent was evaporated to dryness under a nitrogen stream. The resulting residue was dissolved in 200-500 μl of n-hexane for quantification by GLC at high sensitive attenuation. The activity of sterol 14-reductase was determined with the amount of the substrate wherein the double bonds of 14-carbon were reduced (for the amount reduced by 1 mg of the microsome protein for 1 minute).
Consider `CCOc1cc2c(cc1OCC)-c1c(CC)c3ccc(OCC)c(OCc4ccc(Cl)nc4)c3c[n+]1CC2` [Compound No. 65, 5,6-dihydro-2,3-diethoxybenzo[a]-9-(6-chloropyridine-3-yl)methoxy-10-ethoxy-13-ethylbenzo[g]-quinolizinium chloride], for which the concentration for half-maximal inhibition (IC50) is 10 to 100 µM.

`CCc1c2[n+](cc3c(OCc4cccc(Br)c4)c(OC)ccc13)CCc1cc(OC)c(OC)cc1-2` [Compound No. 34, 5,6-dihydro-2,3-dimethoxybenzo[a]-9-(3-bromo)-benzyloxy-13-ethyl-10-methoxybenzo[g]quinolizinium chloride]: the IC50 was in the range of 10 to 100 µM.

For `CCc1c2[n+](cc3c(OCc4ccc(OC(F)(F)F)cc4)c(OC)ccc13)CCc1cc(OC)c(OC)cc1-2` [Compound No. 42, 5,6-dihydro-2,3-dimethoxybenzo[a]-13-ethyl-10-methoxy-9-(4-trifluoromethoxy)benzyloxybenzo[g]quinolizinium chloride], the IC50 fell in the range of 10 to 100 µM.

`C=C(C)COc1c(OC)ccc2c(CC)c3[n+](cc12)CCc1cc(OC)c(OC)cc1-3` [Compound No. 41, 5,6-dihydro-2,3-dimethoxybenzo[a]-13-ethyl-10-methoxy-9-(2-methyl)propenoxybenzo[g]quinolizinium chloride]: the IC50 was above 100 µM.

Regarding `CCc1c2[n+](cc3c(OCc4c(F)cccc4Cl)c(OC)ccc13)CCc1cc(OC)c(OC)cc1-2` [Compound No. 23, 5,6-dihydro-2,3-dimethoxybenzo[a]-9-(2-chloro-6-fluoro)benzyloxy-13-ethyl-10-methoxybenzo[g]quinolizinium chloride], the half-maximal inhibitory concentration (IC50) was 10 to 100 µM.

On to `CCOc1cc2c(cc1OCC)-c1c(CC)c3ccc(OC)c(OCc4ccc(C(C)(C)C)cc4)c3c[n+]1CC2` [Compound No. 55, 5,6-dihydro-2,3-diethoxybenzo[a]-9-[4-(tert-butyl)benzyloxy]-13-ethyl-10-methoxybenzo[g]quinolizinium chloride], for which the half-maximal inhibitory concentration (IC50) was below 1 µM.

In the case of `CCc1c2[n+](cc3c(OCc4c(F)c(F)c(F)c(F)c4F)c(OC)ccc13)CCc1cc(OC)c(OC)cc1-2` [Compound No. 70, 5,6-dihydro-2,3-dimethoxybenzo[a]-13-ethyl-10-methoxy-9-(2,3,4,5,6-pentafluoro)benzyloxybenzo[g]quinolizinium acetate], the IC50 lay in the range of 10 to 100 µM.

Take `CCc1c2[n+](cc3c(OCc4cc5c(cc4Cl)OCO5)c(OC)ccc13)CCc1cc(OC)c(OC)cc1-2` [Compound No. 40, 5,6-dihydro-2,3-dimethoxybenzo[a]-9-(6-chloro)-piperonyloxy-13-ethyl-10-methoxybenzo[g]quinolizinium chloride]: the IC50 is above 100 µM.

`CCc1c2[n+](cc3c(OCc4ccc(Cl)nc4)c(OC)ccc13)CCc1cc(OC)c(OC)cc1-2` [Compound No. 71, 5,6-dihydro-2,3-dimethoxybenzo[a]-9-(6-chloropyridine-3-yl)methoxy-13-ethyl-10-methoxybenzo-[g]quinolizinium nitrate]: the concentration for half-maximal inhibition (IC50) fell in the range of 10 to 100 µM.

Take `CCc1c2[n+](cc3c(OCc4cccc(OC)c4)c(OC)ccc13)CCc1cc(OC)c(OC)cc1-2` [Compound No. 12, 5,6-dihydro-2,3-dimethoxybenzo[a]-13-ethyl-10-methoxy-9-(3-methoxy)benzyloxybenzo[g]quinolizinium chloride]: the IC50 was above 100 µM.

`CCCOc1cc2c(cc1OCCC)-c1c(CC)c3ccc(OCCC)c(OCc4ccc(C(C)(C)C)cc4)c3c[n+]1CC2` [Compound No. 66, 5,6-dihydro-2,3-dipropoxybenzo[a]-9-[4-(tert-butyl)benzyloxy]-13-ethyl-10-propoxybenzo[g]quinolizinium chloride]: the concentration for half-maximal inhibition (IC50) was in the range of 10 to 100 µM.

As to `CCc1c2[n+](cc3c(OCc4cccc(Cl)c4)c(OC)ccc13)CCc1cc(OC)c(OC)cc1-2` [Compound No. 18, 5,6-dihydro-2,3-dimethoxybenzo[a]-9-(3-chloro)-benzyloxy-13-ethyl-10-methoxybenzo[g]quinolizinium chloride], the IC50 was 10 to 100 µM.
